Source: patent US20210163937A1, “[…] GENOME-EDITED CELLS” (B.R.A.I.N. Biotechnology Research and Information Network AG, priority 2018, published 2021)

How the values were obtained:
Assay type in all cases: cell-based, human
[1] = tested on: HaCaT knock-out cells devoid of LRRC8D; experiment: Blasticidin tolerance of LRRC8D knock-out cells; conditions: LRRC8D gene knock-out
Excerpt: FIG. 2: (A) Microscopic analysis of cytotoxic effect of blasticidin on HaCaT wildtype keratinocytes (VVT) (upper panel), HaCaT knock-out cells devoid of LRRC8A (LRRC8A^−/− KO) and HaCaT knock-out cells devoid of LRRC8D (LRRC8D^−/− KO). (B) Graphical display of survival rate of HaCaT wildtype vs. LRRC8A knock-out cells in presence of blasticidin.
(§1) In order to determine the tolerance against the antibiotic blasticidin, HaCaT wildtype keratinocytes (VVT; Boukamp, et al.1988, The Journal of Cell Biology, 106(3):761-771.) as well as HaCaT-LRRC8A^−/− knock-out (KO) cells were treated with different concentrations of blasticidin and growth was determined microscopically for several days (FIG. 2). […] As previously shown for KBM-7cells^10, the LRRC8D subunit is also required for blasticidin uptake in HaCaT cells (FIG. 2A).

HaCaT cells [2] = experiment: Co-editing of LRRC8D and EMX1 with blasticidin enrichment, Sanger sequencing and ICE analysis; conditions: transfected HaCaT cells treated with blasticidin
Procedure: The functionality of the above-described co-editing system was tested by using EMX1 (Empty Spiracles Homeobox 1) as gene-of-interest and LRRC8D as blasticidin resistance-mediating gene. EMX1 is a commonly used reference gene in CRISPR-based research^23. Instead of LRRC8A, another member of the LRRC8 gene family, LRRC8D, was used. First, the coding sequences of two sgRNAs targeting the LRRC8D and EMX1 gene were cloned into an expression plasmid containing the coding sequence for the Cas9 nuclease (FIGS. 4 and 5A). Then HaCaT cells were transfected with the expression plasmids and cells were either treated or not treated with blasticidin (FIG. 5A). After several days of cultivation, genomic DNA was extracted and used in PCR to amplify the genomic-region of the LRRC8D and EMX gene. The PCR products were analyzed by Sanger sequencing and subsequent ICE (Inference of CRISPR Edits)^24 analysis to determine the genetic modifications occurring in the treated and non-treated HaCaT cells (FIG. 5B). Strikingly, when the transfected HaCaT cell pool was not treated with blasticidin, no editing event could be detected; neither in the EMX1 nor in the LRRC8D gene.

HaCaT cells [3] = experiment: Co-editing of LRRC8A and EMX1 with blasticidin enrichment, ICE analysis; conditions: for EMX1 editing: after blasticidin
Procedure: (§2) To further increase the editing rate of the gene of interest, the two single sgRNA cassettes of the gene of interest and the LRRC8A or LRRC8D selection gene (FIG. 6A) can be transcriptionally coupled, for example by coupling the sgRNAs via ribozyme structures (FIG. 6B) or by other processing sites such as tRNAs (FIG. 6C). […] Then HaCaT cells were transfected with the corresponding expression plasmids and cells were treated and analyzed as described in Example 4.
The initial editing rates for EMX1 and LRRC8A were determined 48 h post-transfection and were very low (<5%) (FIG. 7A). Treatment with blasticidin led to drastic increase of LRRC8A editing (>95%), which was equally high independent of the sgRNA expression construct showing efficient enrichment of LRRC8A-KO cells using blasticidin (FIG. 7A). When sgRNA expression cassette of EMX1 was independent from that of LRRC8A, EMX1 editing was increased from 3 to 7%. Strikingly, by coupling the two sgRNA cassettes of EMX1 and LRRC8A via ribozymes, EMX1 editing could drastically be increased from 7% to >70% (FIG. 7A). This clearly proves that the above-described strategy to increase low editing events by transcriptional coupling is functioning.

[4] = tested on: non-pure LRRC8A−/− HaCaT cell clone; experiment: Removal of wildtype cells from a mixed LRRC8A−/− cell pool, PCR of genomic DNA; conditions: single pulse 4 μg/ml blasticidin for 24 h, then blasticidin-free medium
Excerpt: Creating single cell clones is one of the most challenging tasks in all fields of genome engineering. […] Therefore it was of interest to analyze whether the LRRC8A-mediated blasticidin resistance could be a very easy method to get rid of non-edited wildtype cells. To mimic this issue, a non-pure LRRC8A^−/− HaCaT cell clone, which contained the desired 300 bp LRRC8A genomic deletion as well as few undesired HaCaT wildtype cells, was chosen and either treated or not treated with a single blasticidin pulse (4 μg/ml blasticidin applied for 24 h) (FIG. 3A). Then cultivation medium was changed and cells were cultivated in absence of blasticidin. Genomic DNA was isolated and PCR was performed to visualize the genomic deletion of LRRC8A in knock-out cells and/or the non-deleted, intact LRRC8A gene of wildtype cells (FIG. 3B). […] Strikingly, treatment with blasticidin prevented this effect: No
This also proves that disruption of the LRRC8A-mediated blasticidin resistance can not only be used to create blasticidin-resistant cells but that it is also suited to get rid of unwanted wildtype cells during genome engineering.

HEK293 cells [5] = experiment: HR-dependent LRRC8A gene disruption, cell growth under blasticidin; conditions: HEK293, Cas9 + intronic LRRC8A sgRNA, treated 72 h after transfection
Procedure: Next, it was tested whether the above-described strategy (Example 6, FIG. 8) can indeed be employed to enrich HR-capable cells (or conversely to get rid of cells which have performed NHEJ). First, a HDR donor template was designed (FIG. 9A), which creates a modified, non-functional LRRC8A sequence after successful insertion via HR. The HDR donor template is composed of left and right HR flaks, which are complementary to intronic and exon-3 LRRC8A sequence, respectively. The exon-3 sequence used in the HDR donor template carries two modifications to create non-functional LRRC8A: (i) Mutation of the translational start site ATG to ATT and (ii) deletion of one nucleotide (Guanin) to create LRRC8A frameshift. To also test whether foreign or recombinant DNA sequences can be inserted into the LRRC8A locus as well, the restriction site for the Kpnl restriction enzyme was included into the HDR donor template. To prevent the repeated cutting of the Cas9 enzyme (which would prevent successful HDR donor template insertion), the spacer sequence of the sgRNA (which is used to induce the DSB at the intronic region of LRRC8A) was modified by mutating the PAM motif and the seed region. […]

HEK293 cells [6] = experiment: Co-editing of LRRC8A and EMX1 with blasticidin enrichment, ICE analysis; conditions: HEK293, after blasticidin
Procedure: as §2
To confirm the suitability of the co-editing strategy of the present invention also for a different cell type, the same experimental setup was applied for HEK293 cells (FIG. 7B). Again, initial editing of the gene of interest EMX1 was also very low in HEK293 cells. By applying the co-editing strategy as presented above for HaCaT cells, it was also possible to increase the editing rates to approx. 60% for EMX1 and approx. 90% for LRRC8A in HEK293 cells (using uncoupled sgRNA expression constructs) (FIG. 7B).
Again, by transcriptional coupling it was possible to further increase editing rates for EMX1 from 62% to 74% (FIG. 7B).

[7] = tested on: HaCaT wildtype keratinocytes; experiment: Blasticidin tolerance, growth determined microscopically; conditions: 4 μg/ml blasticidin, HaCaT-WT cells
Procedure: as §1

[8] = tested on: HaCaT-LRRC8A−/− knock-out (KO) cells; experiment: as above
Procedure: as §1

Structure (SMILES): CN(CC[C@H](N)CC(=O)N[C@H]1C=C[C@H](n2ccc(N)nc2=O)O[C@@H]1C(=O)O)C(=N)N [blasticidin]
- blasticidin resistance of LRRC8D knock-out cells [1]: resistant
- editing percentage of the LRRC8D gene (HaCaT cells [2]): 90%
- editing percentage of the co-edited EMX1 gene (HaCaT cells [2]): 6%
- LRRC8A editing (HaCaT cells [3]; after blasticidin treatment, independent of sgRNA expression construct): > 95%
- EMX1 editing (HaCaT cells [3]; EMX1 sgRNA cassette independent from LRRC8A): 7%
- EMX1 editing (HaCaT cells [3]; sgRNA cassettes coupled via ribozymes HDV/HH): > 70%
- PCR products of wildtype and knock-out cells after blasticidin treatment [4]: only the PCR product of the pure knock-out cell clone was detectable
- cell growth under blasticidin treatment (HEK293 cells [5]; HDR donor template included): cell growth was observed
- cell growth under blasticidin treatment (HEK293 cells [5]; HDR template omitted): no cell growth was observed
- editing rate for EMX1 (HEK293 cells [6]; transcriptional coupling): 74%
- editing rate for LRRC8A (HEK293 cells [6]; uncoupled sgRNA expression constructs): approx. 90%
- growth of cells in presence of blasticidin [7]: not able to grow anymore and died
- survival of cells under blasticidin treatment [8]: survived the treatment
